Results as given in EP3211076A1, “NOVEL ALPHA-GLUCOSIDASE” (Showa Sangyo Co., Ltd., priority 2014, dated 2016).

Key:
[1] = test system: α-Glucosidase Derived from NBRC4239 Strain; test: Substrate specificity of the enzyme; assay type: biochemical, Aspergillus sojae; conditions: 40°C, pH 6.0; for Relative Activity* (%): substrate 10mM, relative to decomposition rate of 10 mM maltose
Procedure: The substrate specificity of the present enzyme was evaluated at the conditions of 40°C and pH 6.0.

[2] = test system: α-Glucosidase Derived from NBRC4239 Strain; test: Effect of metal ion on the enzyme activity; assay type: biochemical, Aspergillus sojae
Procedure: The hydrolytic activity using maltose as the substrate was measured as shown below. A 20 mM maltose (50µL) dissolved in the 20mM MES buffer (pH 6.0) and an enzyme solution diluted by the buffer are mixed and incubated at 40°C for 30 min., then, 1 µL of 10% oxalic acid solution was added and heated at 100°C for 10 min. to stop the reaction. The amount of liberated glucose in the reaction solution was measured by Glucose CII Test Wako (produced by Wako Pure Chemical Industries, Ltd.). One unit of α-glucosidase activity was defined as the amount of enzyme that catalyzes hydrolysis of 1 µmol of maltose per minute. The effect of various metal ions on the present enzyme was studied. The enzyme activity was analyzed according to <Analysis Method of α-Glucosidase Activity>.

OC[C@H]1O[C@H](O[C@H]2[C@H](O)[C@@H](O)C(O)O[C@@H]2CO)[C@H](O)[C@@H](O)[C@@H]1O (mixture of isomers) [maltose]
hydrolytic activity toward substrate (in words) [1]: well hydrolytic activities
Relative Activity* (%) [1]: 100%

O=C(O)CN(CCN(CC(=O)O)CC(=O)O)CC(=O)O [EDTA]
Specific Activity (%) ([2]; Concentration 5 mM added to reaction mixture, no addition = 100): 85%
effect on the enzyme activity (in words) ([2]; addition of ions to the reaction mixture): inhibited the activity somewhat

OC[C@H]1O[C@H](OC[C@H]2OC(O)[C@H](O)[C@@H](O)[C@@H]2O)[C@H](O)[C@@H](O)[C@@H]1O (stereo partly drawn) [isomaltose]
hydrolytic activity toward substrate (in words) [1]: well hydrolytic activities
Relative Activity* (%) [1]: 163%

OC[C@H]1O[C@H](OC[C@H]2O[C@H](OC[C@H]3O[C@H](OC[C@H]4OC(O)[C@H](O)[C@@H](O)[C@@H]4O)[C@H](O)[C@@H](O)[C@@H]3O)[C@H](O)[C@@H](O)[C@@H]2O)[C@H](O)[C@@H](O)[C@@H]1O (stereo partly drawn) [isomaltotetraose]
Relative Activity* (%) [1]: 168%

OC[C@H]1O[C@H](OC[C@H]2O[C@H](OC[C@H]3OC(O)[C@H](O)[C@@H](O)[C@@H]3O)[C@H](O)[C@@H](O)[C@@H]2O)[C@H](O)[C@@H](O)[C@@H]1O (stereo partly drawn) [isomaltotriose]
Relative Activity* (%) [1]: 161%

OC[C@H]1O[C@H](O[C@H]2[C@H](O)[C@@H](O)[C@@H](O[C@H]3[C@H](O)[C@@H](O)[C@@H](O[C@H]4[C@H](O)[C@@H](O)[C@@H](O[C@H]5[C@H](O)[C@@H](O)[C@@H](O[C@H]6[C@H](O)[C@@H](O)[C@@H](O[C@H]7[C@H](O)[C@@H](O)C(O)O[C@@H]7CO)O[C@@H]6CO)O[C@@H]5CO)O[C@@H]4CO)O[C@@H]3CO)O[C@@H]2CO)[C@H](O)[C@@H](O)[C@@H]1O (stereo partly drawn) [maltoheptaose]
Relative Activity* (%) [1]: 57%

OC[C@H]1O[C@H](O[C@H]2[C@H](O)[C@@H](O)[C@@H](O[C@H]3[C@H](O)[C@@H](O)[C@@H](O[C@H]4[C@H](O)[C@@H](O)[C@@H](O[C@H]5[C@H](O)[C@@H](O)[C@@H](O[C@H]6[C@H](O)[C@@H](O)C(O)O[C@@H]6CO)O[C@@H]5CO)O[C@@H]4CO)O[C@@H]3CO)O[C@@H]2CO)[C@H](O)[C@@H](O)[C@@H]1O (stereo partly drawn) [maltohexaose]
Relative Activity* (%) [1]: 49%

OC[C@H]1O[C@H](O[C@H]2[C@H](O)[C@@H](O)[C@@H](O[C@H]3[C@H](O)[C@@H](O)[C@@H](O[C@H]4[C@H](O)[C@@H](O)[C@@H](O[C@H]5[C@H](O)[C@@H](O)C(O)O[C@@H]5CO)O[C@@H]4CO)O[C@@H]3CO)O[C@@H]2CO)[C@H](O)[C@@H](O)[C@@H]1O (stereo partly drawn) [maltopentaose]
Relative Activity* (%) [1]: 41%

OC[C@H]1O[C@H](O[C@H]2[C@H](O)[C@@H](O)[C@@H](O[C@H]3[C@H](O)[C@@H](O)[C@@H](O[C@H]4[C@H](O)[C@@H](O)C(O)O[C@@H]4CO)O[C@@H]3CO)O[C@@H]2CO)[C@H](O)[C@@H](O)[C@@H]1O (stereo partly drawn) [maltotetraose]
hydrolytic activity toward substrate (in words) [1]: a little low
Relative Activity* (%) [1]: 16%

OC[C@H]1O[C@H](O[C@H]2[C@H](O)[C@@H](O)[C@@H](O[C@H]3[C@H](O)[C@@H](O)C(O)O[C@@H]3CO)O[C@@H]2CO)[C@H](O)[C@@H](O)[C@@H]1O (stereo partly drawn) [maltotriose]
Relative Activity* (%) [1]: 45%

OC[C@H]1O[C@H](O[C@H]2[C@H](O)[C@@H](CO)OC(O)[C@@H]2O)[C@H](O)[C@@H](O)[C@@H]1O (stereo partly drawn) [nigerose]
hydrolytic activity toward substrate (in words) [1]: well hydrolytic activities
Relative Activity* (%) [1]: 153%

OC[C@H]1O[C@H](OC[C@H]2O[C@H](O[C@H]3[C@H](O)[C@@H](O)C(O)O[C@@H]3CO)[C@H](O)[C@@H](O)[C@@H]2O)[C@H](O)[C@@H](O)[C@@H]1O (stereo partly drawn) [panose]
Relative Activity* (%) [1]: 153%

OC[C@H]1O[C@H](O[C@H]2O[C@H](CO)[C@@H](O)[C@H](O)[C@H]2O)[C@H](O)[C@@H](O)[C@@H]1O [trehalose]
hydrolytic activity toward substrate (in words) [1]: very slight
Relative Activity* (%) [1]: 1%

OC[C@H]1O[C@@H]2O[C@H]3[C@H](O)[C@@H](O)[C@@H](O[C@H]4[C@H](O)[C@@H](O)[C@@H](O[C@H]5[C@H](O)[C@@H](O)[C@@H](O[C@H]6[C@H](O)[C@@H](O)[C@@H](O[C@H]7[C@H](O)[C@@H](O)[C@@H](O[C@H]1[C@H](O)[C@H]2O)O[C@@H]7CO)O[C@@H]6CO)O[C@@H]5CO)O[C@@H]4CO)O[C@@H]3CO [α-cyclodextrine]
hydrolytic activity toward substrate (in words) [1]: well hydrolytic activities
Relative Activity* (%) [1]: 58%

OC[C@H]1O[C@@H]2O[C@H]3[C@H](O)[C@@H](O)[C@@H](O[C@H]4[C@H](O)[C@@H](O)[C@@H](O[C@H]5[C@H](O)[C@@H](O)[C@@H](O[C@H]6[C@H](O)[C@@H](O)[C@@H](O[C@H]7[C@H](O)[C@@H](O)[C@@H](O[C@H]8[C@H](O)[C@@H](O)[C@@H](O[C@H]1[C@H](O)[C@H]2O)O[C@@H]8CO)O[C@@H]7CO)O[C@@H]6CO)O[C@@H]5CO)O[C@@H]4CO)O[C@@H]3CO [β-cyclodextrine]
hydrolytic activity toward substrate (in words) [1]: well hydrolytic activities
Relative Activity* (%) [1]: 48%

OC[C@H]1O[C@@H]2O[C@H]3[C@H](O)[C@@H](O)[C@@H](O[C@H]4[C@H](O)[C@@H](O)[C@@H](O[C@H]5[C@H](O)[C@@H](O)[C@@H](O[C@H]6[C@H](O)[C@@H](O)[C@@H](O[C@H]7[C@H](O)[C@@H](O)[C@@H](O[C@H]8[C@H](O)[C@@H](O)[C@@H](O[C@H]9[C@H](O)[C@@H](O)[C@@H](O[C@H]1[C@H](O)[C@H]2O)O[C@@H]9CO)O[C@@H]8CO)O[C@@H]7CO)O[C@@H]6CO)O[C@@H]5CO)O[C@@H]4CO)O[C@@H]3CO [γ-cyclodextrine]
hydrolytic activity toward substrate (in words) [1]: a little low
Relative Activity* (%) [1]: 14%

kojibiose
hydrolytic activity toward substrate (in words) [1]: well hydrolytic activities
Relative Activity* (%) [1]: 91%
